# Data reported in US20070191324A1, “Methods for treatment or prophylaxis of aldosterone-mediated pathogenic effects in a subject using an epoxy-steroidal aldosterone antagonist” (priority 1999, published 2007).
# Like-named read-outs stand apart in the source and are kept apart here.
# Legend:
# [1] = system: saline-loaded adrenalectomized rats treated with aldosterone; experiment: Antimineralocorticoid activity in saline-loaded adrenalectomized rats treated with aldosterone (Example A-2); type: in vivo
# Experimental: Methods: The antimineralocorticoid pharmacological activity was determined in saline-loaded adrenalectomized rats treated with aldosterone. […] Urinary sodium, potassium and water excretion were measured.
# [2] = system: patients with hypertension and left ventricular hypertrophy; experiment: Eplerenone, enalapril and combination in left ventricular hypertrophy, 9 months (Examples A-15, D-4); type: in vivo, human
# Excerpt: Table […] illustrates forth the above-described dosing scheme. […] Additional laboratory assessments of blood for clinical safety will be done monthly. Routine urinalysis will be done every three months. […] A blood sample for genotyping will be collected at Week 0. At screening and at Month 9, a 12-lead ECG and physical examination will be done. […] In case of early termination, an MRI and blood sample for TSH will be done for those patients who have received double-blind treatment for at least three months. At Weeks 0, 12 and Months 6 and 9, pharmacoeconomic data will be collected on all patients. The primary measure of efficacy is the change from baseline in LVM, as assessed by MRI, in the eplerenone group versus the enalapril group. […] Secondary measures of efficacy will be the following: […] (3) aortic compliance and ventricular filling parameters; and (4) special studies (PIIINP, microalbuminuria, PAI, and tPA). Additionally, the long-term safety and tolerability of the three treatment groups will be compared. […] The study design is illustrated in FIG. D-10. […] Left ventricular mass (LVM) (assayed by MRI), BP, collagen turnover, and tolerability were assessed at the 9-month endpoint.
# saline-drinking SHRSP = experiment: Stroke and cerebrovascular damage in saline-drinking SHRSP (Example A-7); type: in vivo, rat; details: 100 mg/kg/day, up to 18.5 weeks of age
# Excerpt: Fifteen male, 9 weeks of age, saline-drinking SHRSP were included in the experiment. […] A-12). […] Using a semi-quantitative scoring system from 0-4 for cerebral injury (FIG.
# [3] = Pharmacokinetics and absorption of [14C]eplerenone in the rat (Example A-9); type: in vivo; details: for Cmax: rat, oral 15 mg/kg
# Experimental: Plasma, urine and fecal samples were analyzed for total radioactivity.
# [4] = system: diabetic type 2 patients with hypertension and microalbuminuria; experiment: Eplerenone, enalapril and combination in diabetic hypertensives with microalbuminuria, 24 weeks (Examples A-18, D-7); type: in vivo, human
# [5] = system: patients not controlled with ACE-I or ARB; experiment: Co-administration of eplerenone with ACE-I or ARB in mild-moderate hypertension (Example D-9); type: in vivo, human
# Experimental: Patients examined in the study were those who currently were treated with an ACE-I and/or ARB and who had DBP ≧95 mmHg and <110 mmHg and SBP <180 mmHg. Previous antihypertensive therapy was withdrawn except a fixed dose of single ACE-I or ARB.
# [6] = Single dose pharmacokinetics, Japan and Ex-Japan trials (Example A-11); type: in vivo, human; details: for Vd/F: male, human, in vivo, oral, single dose, least squares mean, read-out: Vss/F
# Experimental: A total of 76 European subjects and 38 Japanese subjects participated in the single and multiple dose tolerability and food effect trials. Three of the studies were Ex-Japan studies and included doses ranging from 10 mg to 1000 mg. The other two studies were conducted in Japan and included doses ranging from 50 mg to 600 mg.
# The […] trials included (i) a single dose tolerability trial, and (ii) a multiple dose tolerability trial, and (iii) a food effect study.
# Both single dose and multiple dose tolerability trials were conducted in Japan utilizing healthy male Japanese subjects. […] Six subjects who received the 100 mg dose also participated in the food effect treatment arm of the single dose tolerability trial.
# Combining single dose fasting pharmacokinetic data from all five studies, an analysis of variance with factors for country (Japan, Ex-Japan), study nested within country, and dose were performed on the dose-normalized Cmax and AUC values to assess the effect of country (population). Dose normalization was done to the lowest dose (10 mg for single dose, 100 mg for multiple dose). In the absence of intravenous data, the distribution volume (V/F) and clearance (CL/F) parameters are represented as the apparent values and are normalized to 70 kg of body weight. There were no statistically significant differences between the Japan and Ex-Japan trials in any of the pharmacokinetic parameters analyzed.
# No statistically significant differences were noted between the Japan and ex-Japan population for any of the derived parameters evaluated.
# Each panel consisted of six subjects who were given eplerenone and two subjects who were given placebo.
# [7] = system: black and white patients with mild-to-moderate hypertension; details: for Active Renin (% change) / ΔDBP / ΔSBP: baseline to Week 16
# hypertensive patients = experiment: Eplerenone vs. amlodipine, ambulatory blood pressure monitoring, 16 weeks (Example D-12); type: in vivo, human
# Excerpt: This was a multicenter, randomized, double-blind, active-controlled, placebo run-in, parallel group study. […] If symptomatic hypotension occurred at Week 2 or Weeks 4, 6, 8, or 12 and the patient was on the lowest dose level (Dose Level 1), the patient was to be withdrawn. Study assessments at protocol-specified timepoints included BP, heart rate, ABPM, Holter recording, clinical laboratory analyses including serum potassium levels, concomitant medications. Throughout the study, safety was assessed by routine clinical laboratory analyses, vital signs, physical examinations, 12-lead ECG, and monitoring of adverse events.
# [8] = 9-month endpoint, forced titration
# [9] = 9-month endpoint, EPL 200 mg, ENAL 40 mg, EPL 200 mg/ENAL 10 mg
# [10] = addition of eplerenone, 8 weeks
compound,measurement,setting,value
"COC(=O)[C@@H]1CC2=CC(=O)CC[C@]2(C)[C@@]23O[C@@H]2C[C@@]2(C)[C@@H](CC[C@@]24CCC(=O)O4)[C@H]13 [Eplerenone, Pregn-4-ene-7,21-dicarboxylic acid, 9,11-epoxy-17-hydroxy-3-oxo-, γ-lactone, methyl ester, (7α, 11α, 17β)-]",Urinary Na/K ± SEM,[1]; aldosterone & antagonist 1 mg/kg by gavage,2.53 ± 0.23
same,Urinary Na/K ± SEM,[1]; aldosterone & antagonist 3 mg/kg by gavage,4.08 ± 0.26
same,Urinary Na/K ± SEM,[1]; aldosterone & antagonist 10 mg/kg by gavage,4.11 ± 0.27
same,DBP Adjusted mean change,[2]; [8],−10.8 mmHg
same,SBP Adjusted mean change,[2]; [8],−21.0 mmHg
same,decrease from baseline in UACR,[2]; [9],−28.7%
same,decrease from baseline in collagen turnover,[2]; [9],−7.3%
same,patients experiencing coughing,[2]; 9-month study,3.1%
same,LVM Adjusted mean change [g (SE)],"[2]; left ventricular mass by MRI, 9-month endpoint, forced titration (EPL 50-200 mg, ENAL 10-40 mg)",−14.5 (3.36) g
same,regressing LVH and reducing collagen turnover,[2]; monotherapy,as effective as enalapril monotherapy
same,stroke signs,saline-drinking SHRSP,no signs of stroke
same,time of peak plasma concentration of total radioactivity,"[3]; oral aqueous solution 15 mg/kg, male rat",1.1 h
same,clearance,"[3]; plasma, IV 15 mg/kg, male rat",20.3 mL/min/kg
same,half-life,"[3]; plasma, IV 15 mg/kg, male rat",48.2 min
same,Cmax,"[3]; plasma, female rats",3540 ng/mL
same,Cmax,"[3]; plasma, male rats",1710 ng/mL
same,patients withdrawn for hyperkalemia,[4]; 24 weeks,6 patients
same,reduction in microalbuminuria (UACR),[4]; 24 weeks,greater reduction in microalbuminuria than enalapril
same,subjects with elevated K+ (≧6.0 mEq/L),[4]; 24 weeks,8 subjects
same,patients requiring addition of hydrochlorothiazide (HCTZ),"[4]; EPL 200 mg QD, ENAL 40 mg QD, EPL 200 mg/ENAL 10 mg, 24 weeks",36/84
same,Adjusted mean change ΔDBP (Week 8-baseline),[4]; Week 8,−10.2
same,Adjusted mean change ΔSBP (Week 8-baseline),[4]; Week 8,−13.5
same,Adjusted mean change ΔDBP (Week 24-baseline),[4]; Week 24,−13.2
same,Adjusted mean change ΔSBP (Week 24-baseline),[4]; Week 24,−19.5
same,tolerability,[4]; in vivo,well tolerated
same,"laboratory abnormalities, K+, adverse events",[5]; addition of eplerenone to ACE-I or ARB,No significant increase in relevant laboratory abnormalities
same,SBP & DBP in patients currently treated with ARB,[5]; [10],Significant reductions in SBP & DBP
same,SBP in patients currently treated with ACE-I,[5]; [10],Significant reductions in SBP
same,heart rate,[5]; either group,No change in heart rate
same,clinical lab abnormalities and adverse events,"[6]; healthy Japanese male subjects, single doses 50-600 mg",no adverse events were reported
same,Vd/F,[6]; Ex-Japan,80.6 L
same,Vd/F,[6]; Japan,80.1 L
same,treatment of mild-to-moderate hypertension in black hypertensive patients,[7]; 16 weeks,superior to losartan
same,Active Renin (% change),[7]; All Patients,+45.6%
same,ΔDBP,[7]; All Patients,−10.3 mmHg
same,ΔSBP,[7]; All Patients,−12.8 mmHg
same,Active Renin (% change),[7]; Black Patients,+39.3%
same,ΔDBP,[7]; Black Patients,−10.2 mmHg
same,ΔSBP,[7]; Black Patients,−13.5 mmHg
same,adjusted mean percent change from baseline in UACR,"[7]; Week 16, EPL 50-200 mg QD, LOS 50-100 mg QD",−21.6%
same,Active Renin (% change),[7]; White Patients,+57.1%
same,ΔDBP,[7]; White Patients,−11.1 mmHg
same,ΔSBP,[7]; White Patients,−12.3 mmHg
same,safety and tolerability,"[7]; human, in vivo",safe and well-tolerated
same,"anti-hypertensive effect, mean 24 hour systolic ABPM","hypertensive patients; eplerenone 50-200 mg, amlodipine 2.5-10 mg, 16 weeks",comparable
same,safety and tolerability,hypertensive patients; in vivo,safe and well tolerated
